# Data from patent US10450346B2, “Immunotherapy against several tumors of the blood, in particular chronic lymphoid leukemia (CLL)” (Immatics biotechnologies GmbH, priority 2014, dated 2019).
# Tests used:
# MHC class I = experiment: MHC binding assay (peptide-ligand exchange, β2m ELISA); parameters: species or system human; conditions: yield of UV-exchange reaction
# Text: Candidate peptides for T cell based therapies according to the present invention were further tested for their MHC binding capacity (affinity). The individual peptide-MHC complexes were produced by peptide-ligand exchange, where a cleavage-sensitive peptide is cleaved, and exchanged with the peptide of interest as analyzed. Only peptide candidates that can effectively bind and stabilize the peptide-receptive MHC molecules prevent dissociation of the MHC complexes. To determine the yield of the exchange reaction, an ELISA was performed based on the detection of the light chain (β2m) of stabilized MHC complexes. The assay was performed as generally described in Rodenko et al. (Rodenko et al., Nat Protoc. 1 (2006): 1120-1132).
# 96 well MAXISorp plates (NUNC) were coated over night with 2 ug/ml streptavidin in PBS at room temperature, washed 4× and blocked for 1 h at 37° C. in 2% BSA containing blocking buffer. Refolded HLA-A*0201/MLA-001 monomers served as standards, covering the range of 15-500 ng/ml. Peptide-MHC monomers of the UV-exchange reaction were diluted 100 fold in blocking buffer. Samples were incubated for 1 h at 37° C., washed four times, incubated with 2 ug/ml HRP conjugated anti-β2m for 1 h at 37° C., washed again and detected with TMB solution that is stopped with […]. Absorption was measured at 450 nm. […]
# [1] = tested on: CD8+ T cells of healthy donors; experiment: In vitro T-cell priming with aAPCs loaded with peptide/MHC complexes and anti-CD28 antibody; type: cell-based, human; conditions: pMHC multimer readout
# Experimental: In order to obtain information regarding the immunogenicity of the TUMAPs of the present invention, the inventors performed investigations using an in vitro T-cell priming assay based on repeated stimulations of CD8+ T cells with artificial antigen presenting cells (aAPCs) loaded with peptide/MHC complexes and anti-CD28 antibody. […]
# Generation of pMHC/anti-CD28 coated beads, T-cell stimulations and readout was performed in a highly defined in vitro system using four different pMHC molecules per stimulation condition and 8 different pMHC molecules per readout condition. […]
# 800.000 beads/200 μl were coated in 96-well plates in the presence of 4×12.5 ng different biotin-pMHC, washed and 600 ng biotin anti-CD28 were added subsequently in a volume of 200 μl. […] For the pMHC multimer readout using 8 different pMHC molecules per condition, a two-dimensional combinatorial coding approach was used as previously described (Andersen et al., Nat. Protoc. 7 (2012): 891-902) with minor modifications encompassing coupling to 5 different fluorochromes. […] Peptide specific cells were calculated as percentage of total CD8+cells. […] In vitro priming of specific multimer+ CD8+ lymphocytes was detected by comparing to negative control stimulations.
# [2] = tested on: peptide-specific CD8+ T cells of CLL patient PBMC; experiment: Intracellular IFN-γ and TNF-α staining; type: cell-based, human; conditions: peptide stimulated CLL patient PBMC
# Experimental: PBMC from CLL patients and healthy volunteers were cultured in RPMI1640 medium (Gibco) supplemented with 10% pooled human serum (PHS, produced in-house), […] β-mercaptoethanol (Roth, Karlsruhe, Germany) and 1% penicillin/streptomycin (GE). For CD8^+ T cell stimulation, PBMC were thawed and pulsed with 1 μg/ml per peptide. Peptide-pulsed PBMC (5-6×10^6 cells/ml) were cultured at 37° C. and 5% CO2 for 12 days. On day 0 and day […] IL-4 (R&D Systems, Minneapolis, Minn., USA) and 5 ng/ml IL-7 (Promokine, Heidelberg, Germany) were added to the culture medium. On days 3, 5, 7 and 9, 2 ng/ml IL-2 (R&D Systems) were added to the culture medium. Peptide-stimulated PBMC were functionally characterized by ELISPOT assays on day 12 and by intracellular cytokine staining on day 13 respectively. For CD4^+ T-cell stimulation, culture was performed as described for CD8^+ T cells with 2 modifications: pulsing was carried out with 10 μg/ml of HLA class II peptide and no IL-4 and IL-7 was added.
# The frequency and functionality of peptide-specific CD8^+ T cells was analyzed by intracellular IFN-γ and TNF-α staining. PBMC were pulsed with 1 μg/ml of individual peptide and incubated in the presence of 10 μg/ml Brefeldin A (Sigma, St. Louis, Mo., USA) and 10 μg/ml GolgiStop (BD) for 6-8 h. […] Samples were analyzed on a FACS Canto II.
# CLL patient CD8+ T cells = experiment: HLA:peptide tetramer staining; type: cell-based, human
# Experimental: The frequency of peptide-specific CD8^+ T cells was determined by staining with anti-CD8 and HLA:peptide-tetramer-PE
substance,measurement,setting,value
229 (FRVGNVQEL; listed as Homo sapiens) [compound 229],Peptide exchange (MHC class I binding score),MHC class I,++++ (>=75% = ++++)
239 (SENAFYLSP; listed as Homo sapiens) [compound 239],Peptide exchange (MHC class I binding score),MHC class I,++++ (>=75% = ++++)
KFAEEFYSF (listed as Homo sapiens) [SEQ ID NO: 20],"in vitro T-cell responses, positive donors of tested donors",[1],2 of 5
SSSGLHPPK (listed as Homo sapiens) [SEQ ID NO: 77],intracellular cytokine staining for IFNγ and TNFα,[2],confirmed
same,tetramer staining of CD8+ T cells,CLL patient CD8+ T cells,confirmed
